PMC8041276 (ACS Chemical Neuroscience, 2021)

What was measured:
5-HT1AR = target: T1, 5-HT1AR (Homo sapiens, UniProt P08908); experiment: [3H]-8-OH-DPAT radioligand binding assay, HEK293 cells; conditions: mean of three experiments
T1 construct: expressed in transfected cells
T1 sequence (P08908 1-422): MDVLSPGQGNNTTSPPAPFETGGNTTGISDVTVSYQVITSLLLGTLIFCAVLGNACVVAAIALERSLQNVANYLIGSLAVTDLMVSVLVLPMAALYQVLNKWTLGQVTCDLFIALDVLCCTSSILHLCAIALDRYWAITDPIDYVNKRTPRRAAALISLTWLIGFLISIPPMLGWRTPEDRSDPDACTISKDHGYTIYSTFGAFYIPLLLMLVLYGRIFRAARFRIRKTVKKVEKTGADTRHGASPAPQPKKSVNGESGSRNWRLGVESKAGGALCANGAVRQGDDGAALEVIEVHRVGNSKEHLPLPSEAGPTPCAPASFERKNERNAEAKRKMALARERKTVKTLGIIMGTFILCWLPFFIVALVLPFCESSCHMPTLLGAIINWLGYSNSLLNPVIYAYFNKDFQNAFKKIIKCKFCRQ
Method: (§1) All experiments were carried out according to the previously published procedures.[41]−[43] HEK293 cells stably expressing human 5-HT1A, 5-HT6, 5-HT7b, and D2L receptors (prepared with the use of Lipofectamine 2000) or CHO-K1 cells with plasmid containing the sequence coding for the human serotonin 5-HT2A receptor (PerkinElmer) were maintained at 37 °C in a humidified atmosphere containing 5% CO2 and grown in Dulbecco’s modified Eagle’s medium containing 10% dialyzed fetal bovine serum and 500 μg/mL G418 sulfate. For membrane preparation, cells were cultured in 150 cm^2 flasks, grown to 90% confluence, washed twice with prewarmed to 37 °C phosphate buffered saline (PBS), and centrifuged (200g) in PBS containing 0.1 mM EDTA and 1 mM dithiothreitol. Prior to membrane preparation, pellets were stored at −80 °C. Cell pellets were thawed and homogenized in 10 volumes of assay buffer using an Ultra Turrax tissue homogenizer and centrifuged twice at 35 000g for 15 min at 4 °C, with incubation for 15 min at 37 °C between the centrifugations. The composition of the assay buffers was experimentally selected to achieve the maximum signal window (more details in Supporting Information). All assays were carried out in a total volume of 200 μL in 96-well plates for 1 h at 37 °C except 5-HT1AR and 5-HT2AR which were incubated at room temperature and 27 °C, respectively. The process of equilibration was terminated by rapid filtration through Unifilter plates with a 96-well cell harvester, and radioactivity retained on the filters was quantified on a Microbeta plate reader (PerkinElmer, USA). For displacement studies the assay samples contained the following as radioligands (PerkinElmer, USA): 2.5 nM [^3H]-8-OH-DPAT (135.2 Ci/mmol) for 5-HT1AR; 1 nM [^3H]-ketanserin (53.4 Ci/mmol) for 5-HT2AR; 2 nM [^3H]-LSD (83.6 Ci/mmol) for 5-HT6R; 0.8 nM [^3H]-5-CT (39.2 Ci/mmol) for 5-HT7R or 2.5 nM [^3H]-raclopride (76.0 Ci/mmol) for D2LR. Nonspecific binding was defined in the presence of 10 μM 5-HT in 5-HT1AR and 5-HT7R binding experiments, whereas 20 μM mianserin, 10 μM methiothepine, and 10 μM haloperidol were used in 5-HT2AR, 5-HT6R, and D2LR assays, respectively. Each compound was tested in triplicate at seven concentrations (10^–10–10^–4 M). The inhibition constants (Ki) were calculated from the Cheng–Prusoff equation.[44]

[1] = Metabolic stability in rat liver microsomes; type: in vitro ADME; conditions: male, pH 7.4, 10 μM compound, read-out: intrinsic clearance
Method: Metabolic stability of compounds 27 and 28 was analyzed using incubation systems composed of tested compound (10 μM), rat liver microsomes (RLMs, microsomes from rat male liver, pooled; 0.4 mg/mL; Sigma-Aldrich), NADPH-regenerating system (NADP+, glucose-6-phosphate, and glucose-6-phosphate dehydrogenase in 100 mM potassium buffer, pH 7.4; all from Sigma-Aldrich) and potassium buffer, pH 7.4. […] First, all samples containing incubation mixture (without NADPH-regenerating system) were preincubated in thermoblock at 37 °C for 10 min. Then reaction was initiated by the addition of NADPH-regenerating system. In control samples NADPH-regenerating system was replaced with potassium buffer. Probes were incubated for 30 and 60 min at 37 °C. After addition of internal standard (pentoxifylline, 10 μM) biotransformation process was stopped by addition of perchloric acid. Next, samples were centrifuged and supernatants were analyzed using UPLC/MS (Waters Corporation, Milford, MA). All experiments were run in duplicates. Half-life time was evaluated using nonlinear regression model using GraphPad Prism software, and intrinsic clearance was calculated from the equation Clint = (volume of incubation [μL]/protein in the incubation [mg])0.693/t1/2.[46]

5-HT6R [2] = target: T2, 5-HT6R (Homo sapiens, UniProt P50406); experiment: [3H]-LSD radioligand binding assay, HEK293 cells stably expressing human 5-HT6R; parameters: expressed in transfected cells; conditions: mean of three independent experiments
Method: Final compounds were evaluated in the [^3H]-LSD binding assay using HEK293 cells with stable expression of human 5-HT6R. […] Because the fluorine atom might affect the affinity at target protein as well as physicochemical and pharmacokinetic properties of compound,[22] fluorine substitution at the 2-phenyl ring was applied. […] The analysis of the binding mode of 18 and 28 (Figure 2A) confirmed that the 2-phenyl moiety is placed in the hydrophobic cavity between transmembrane domains (TMs) 4–6.
as §1

5-HT6R [3] = target: T2, 5-HT6R; experiment: Inhibition of 5-CT-stimulated cAMP production in 1321N1 cells; type: cell-based; parameters: expressed in transfected cells; conditions: antagonism of 5-CT (1000 nM)-stimulated cAMP
Method: The effect of compounds 18, 22, 27, and 28 on adenylate cyclase was examined in 1321N1 cells expressing the 5-HT6R.
The properties of compounds 18, 22, 27, 28 to inhibit cAMP production induced by 5-CT (1000 nM), a 5-HT6R agonist, were evaluated. Compounds were tested in triplicate at eight concentrations (10^–11–10^–4 M). The level of cAMP was measured using frozen recombinant 1321N1 cells expressing the human serotonin 5-HT6R (PerkinElmer). Total cAMP was measured using the LANCE cAMP detection kit (PerkinElmer), according to the manufacturer’s recommendations. For quantification of cAMP levels, 2000 cells/well (5 μL) were incubated with a mixture of compounds (5 μL) for 30 min at room temperature in 384-well white opaque microtiter plate. After incubation, the reaction was stopped and cells were lysed by the addition of 10 μL of working solution (5 μL of Eu-cAMP and 5 μL of ULight-anti-cAMP) for 1 h at room temperature. Time-resolved fluorescence resonance energy transfer (TR-FRET) was detected by an Infinite M1000 Pro (Tecan) using instrument settings from LANCE cAMP detection kit manual. Kb values were calculated from Cheng–Prusoff equation specific for the analysis of functional inhibition curves: Kb = IC50/(1 + A/EC50) where A represents agonist concentration, IC50 the concentration of antagonist producing a 50% reduction in the response to agonist, and EC50 the agonist concentration which causes a half of the maximal response.[44]

T2 sequence (P50406 whole entry, the tested form may be a part): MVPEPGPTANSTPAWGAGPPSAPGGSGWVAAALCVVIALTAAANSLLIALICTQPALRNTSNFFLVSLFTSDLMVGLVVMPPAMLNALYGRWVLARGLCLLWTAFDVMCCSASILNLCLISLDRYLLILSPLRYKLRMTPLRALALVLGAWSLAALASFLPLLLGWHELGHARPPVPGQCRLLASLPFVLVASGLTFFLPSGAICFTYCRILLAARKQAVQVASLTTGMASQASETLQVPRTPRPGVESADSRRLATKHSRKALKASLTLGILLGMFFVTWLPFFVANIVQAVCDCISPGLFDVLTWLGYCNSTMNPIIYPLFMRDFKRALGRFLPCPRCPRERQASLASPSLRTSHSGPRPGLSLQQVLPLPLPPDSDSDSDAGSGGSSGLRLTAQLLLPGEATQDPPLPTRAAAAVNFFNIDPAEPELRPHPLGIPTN

Structure (SMILES) | Ki (5-HT1AR) [nM] | microsomal CLint at 10 μM [1] [µL/min/mg] | Ki (5-HT6R [2]) [nM] | Kb (5-HT6R [3]) [nM]
O=C(N[C@H]1CCNC1)c1ccn(S(=O)(=O)c2cccc(Cl)c2)c1-c1ccc(F)cc1 [Compound 28, (S)-2-(4-Fluorophenyl)-1-[(3-chlorophenyl)sulfonyl]-N-(pyrrolidin-3-yl)-1H-pyrrole-3-carboxamide] | 61500 | 1.03 | 22 | 7.6
O=C(N[C@@H]1CCNC1)c1ccn(S(=O)(=O)c2cccc(Cl)c2)c1-c1ccc(F)cc1 [Compound 27, (R)-2-(4-Fluorophenyl)-1-[(3-chlorophenyl)sulfonyl]-N-(pyrrolidin-3-yl)-1H-pyrrole-3-carboxamide] | 53700 | 0.82 | 30 | 11.4
